Data reported in patent US20240384350A1, “METHODS OF TREATING CANCER WITH KINASE INHIBITORS” (BOARD OF REGENTS, THE UNIVERSITY OF TEXAS SYSTEM, priority 2021, published 2024).

What was measured:
Assay in all cases: Ba/F3 drug screening, Cell Titer Glo, IC50 Mut/WT
Format in all cases: cell-based
[1] = biological target: T1, EGFR L858R/V834L (Homo sapiens, UniProt P00533, L858R/V834L); details: Classical-Like, 72 hours
T1 construct: expressed in transfected cells; host or cells: Ba/F3 cells, retroviral pBabe-Puro vector

[2] = biological target: T2, EGFR L858R (Homo sapiens, UniProt P00533, L858R); details: Classical-Like, 72 hours
T2 construct: expressed in transfected cells; host or cells: Ba/F3 cells, retroviral pBabe-Puro vector

[3] = biological target: T3, EGFR K754E (Homo sapiens, UniProt P00533, K754E); details: Classical-Like, 72 hours
T3 construct: expressed in transfected cells; host or cells: Ba/F3 cells, retroviral pBabe-Puro vector
Method: (§1) Data represent the ratio of the IC50 value for a given TKI for cells with a classical-like EGFR mutation to the IC50 value for cells with wildtype EGFR.
(§2) Ba/F3 cell generation, drug screening, and IC50 approximations. Ba/F3 cells were obtained as a gift from Dr. Gordon Mills (MD Anderson Cancer Center), and maintained in RPMI (Sigma) containing 10% FBS, 1% penicillin/streptomycin, and 10 ng/ml recombinant mIL-3 (R&D Biosystems). To establish stable Ba/F3 cell lines, Ba/F3 cells were transduced with retroviruses containing mutant EGFR plasmids for 12-24 hours.
(§3) After 48-72 hours of transduction, 2 μg/ml puromycin (Invitrogen) was added to Ba/F3 cell lines in complete RPMI. To select for EGFR positive cell lines, cells were stained with PE-EGFR (Biolegend) and sorted by FACS. After sorting, EGFR positive cells were maintained in RPMI containing 10% FBS, 1% penicillin/streptomycin, and 1 ng/ml EGF to support cell viability. […] Shortly, cells were plated in 384-well plates (Greiner Bio-One) at 2000-3000 cells per well in technical triplicate. Seven different concentrations of TKIs or DMSO vehicle were added to reach a final volume of 40 μL per well. After 72 hours, 11 μL of Cell Titer Glo (Promega) was added to each well. Plates were incubated for a minimum of 10 minutes, and bioluminescence was determined using a FLUOstar OPTIMA plate reader (BMG LABTECH). Raw bioluminescence values were normalized to DMSO control treated cells, and values were plotted in GraphPad Prism. […] Drug screens were performed in technical triplicate on each plate and either duplicate or triplicate biological replicates.

[4] = biological target: T4, EGFR S811F (Homo sapiens, UniProt P00533, S811F); details: Classical-Like, 72 hours
T4 construct: expressed in transfected cells; host or cells: Ba/F3 cells, retroviral pBabe-Puro vector (vector made by GeneScript from EGFR WT)
Method: as §1, §2, §3

[5] = biological target: T5, EGFR D770insNPG (Homo sapiens, UniProt P00533, INS770NPG); details: Ex20, 72 hours
T5 construct: expressed in transfected cells; host or cells: Ba/F3 cells, retroviral pBabe-Puro vector
Method: (§4) Data represent the ratio of the IC50 value for a given TKI for cells with an ex20ins EGFR mutation to the IC50 value for cells with wildtype EGFR.
as §2
(§5) After 48-72 hours of transduction, 2 μg/ml puromycin (Invitrogen) was added to Ba/F3 cell lines in complete RPMI. To select for EGFR positive cell lines, cells were stained with PE-EGFR (Biolegend) and sorted by FACS. After sorting, EGFR positive cells were maintained in RPMI containing 10% FBS, 1% penicillin/streptomycin, and 1 ng/ml EGF to support cell viability. Drug screening was performed as previously described^41,42. Shortly, cells were plated in 384-well plates (Greiner Bio-One) at 2000-3000 cells per well in technical triplicate. Seven different concentrations of TKIs or DMSO vehicle were added to reach a final volume of 40 μL per well. After 72 hours, 11 μL of Cell Titer Glo (Promega) was added to each well. Plates were incubated for a minimum of 10 minutes, and bioluminescence was determined using a FLUOstar OPTIMA plate reader (BMG LABTECH). Raw bioluminescence values were normalized to DMSO control treated cells, and values were plotted in GraphPad Prism. […] Drug screens were performed in technical triplicate on each plate and either duplicate or triplicate biological replicates. […] Statistical differences between groups were determined by ANOVA as described in the figure legends.

[6] = biological target: T6, EGFR N771dupN (Homo sapiens, UniProt P00533, DUP771-771); details: Ex20, 72 hours
T6 construct: expressed in transfected cells; host or cells: Ba/F3 cells, retroviral pBabe-Puro vector
Method: as §4, §2, §5

[7] = biological target: T7, EGFR L747_K754del insATSPE (Homo sapiens, UniProt P00533, DEL747-749/K754E); details: T790M-like-3S, 72 hours
T7 construct: expressed in transfected cells; host or cells: Ba/F3 cells, retroviral pBabe-Puro vector
Method: (§6) Data represent the ratio of the IC50 value for a given TKI for cells with a T790M-like-3S EGFR mutation to the IC50 value for cells with wildtype EGFR.
as §2
(§7) After 48-72 hours of transduction, 2 μg/ml puromycin (Invitrogen) was added to Ba/F3 cell lines in complete RPMI. To select for EGFR positive cell lines, cells were stained with PE-EGFR (Biolegend) and sorted by FACS. After sorting, EGFR positive cells were maintained in RPMI containing 10% FBS, 1% penicillin/streptomycin, and 1 ng/ml EGF to support cell viability. Drug screening was performed as previously described^41,42. Shortly, cells were plated in 384-well plates (Greiner Bio-One) at 2000-3000 cells per well in technical triplicate. Seven different concentrations of TKIs or DMSO vehicle were added to reach a final volume of 40 μL per well. After 72 hours, 11 μL of Cell Titer Glo (Promega) was added to each well. Plates were incubated for a minimum of 10 minutes, and bioluminescence was determined using a FLUOstar OPTIMA plate reader (BMG LABTECH). Raw bioluminescence values were normalized to DMSO control treated cells, and values were plotted in GraphPad Prism. […] Drug screens were performed in technical triplicate on each plate and either duplicate or triplicate biological replicates.

[8] = biological target: T8, EGFR L858R/T790M (Homo sapiens, UniProt P00533, L858R/T790M); details: T790M-like-3S, 72 hours
T8 construct: expressed in transfected cells; host or cells: Ba/F3

[9] = biological target: T9, EGFR S768I/T790M (Homo sapiens, UniProt P00533, S768I/T790M); details: T790M-like-3S, 72 hours
T9 construct: expressed in transfected cells; host or cells: Ba/F3
Method: as §6, §2, §7

[10] = biological target: T10, EGFR Ex19del/T790M/G724S (Homo sapiens, UniProt P00533, DEL746-750/G724S/T790M); details: T790M-like-3S, 72 hours
T10 construct: expressed in transfected cells; host or cells: Ba/F3

[11] = biological target: T11, EGFR L858R T790M L792H (Homo sapiens, UniProt P00533, L792H/L858R/T790M); details: T790M-like-3S, 72 hours
T11 construct: expressed in transfected cells; host or cells: Ba/F3
Method: as §6, §2, §7

[12] = biological target: T12, EGFR Ex19del T790M L718V (Homo sapiens, UniProt P00533, DEL746-750/L718V/T790M); details: T790M-like-3S, 72 hours
T12 construct: expressed in transfected cells; host or cells: Ba/F3

[13] = biological target: T13, EGFR G724S T790M (Homo sapiens, UniProt P00533, G724S/T790M); details: T790M-like-3R, 72 hours
T13 construct: expressed in transfected cells; host or cells: Ba/F3
Method: (§8) Data represent the ratio of the IC50 value for a given TKI for cells with a T790M-like-3R EGFR mutation to the IC50 value for cells with wildtype EGFR.
as §2
(§9) After 48-72 hours of transduction, 2 μg/ml puromycin (Invitrogen) was added to Ba/F3 cell lines in complete RPMI. To select for EGFR positive cell lines, cells were stained with PE-EGFR (Biolegend) and sorted by FACS. After sorting, EGFR positive cells were maintained in RPMI containing 10% FBS, 1% penicillin/streptomycin, and 1 ng/ml EGF to support cell viability. […] Shortly, cells were plated in 384-well plates (Greiner Bio-One) at 2000-3000 cells per well in technical triplicate. Seven different concentrations of TKIs or DMSO vehicle were added to reach a final volume of 40 μL per well. After 72 hours, 11 μL of Cell Titer Glo (Promega) was added to each well. Plates were incubated for a minimum of 10 minutes, and bioluminescence was determined using a FLUOstar OPTIMA plate reader (BMG LABTECH). Raw bioluminescence values were normalized to DMSO control treated cells, and values were plotted in GraphPad Prism. […] Drug screens were performed in technical triplicate on each plate and either duplicate or triplicate biological replicates. […] Statistical differences between groups were determined by ANOVA as described in the figure legends.

[14] = biological target: T14, EGFR Ex19del/T790M/L792H (Homo sapiens, UniProt P00533, DEL746-750/L792H/T790M); details: T790M-like-3R, 72 hours
T14 construct: expressed in transfected cells; host or cells: Ba/F3
Method: as §8, §2, §9

[15] = biological target: T15, EGFR E709K G719S (Homo sapiens, UniProt P00533, E709K/G719S)
T15 construct: expressed in transfected cells; host or cells: Ba/F3

[16] = biological target: T16, EGFR L718Q (Homo sapiens, UniProt P00533, L718Q)
T16 construct: expressed in transfected cells; host or cells: Ba/F3

[17] = biological target: T17, EGFR L718V (Homo sapiens, UniProt P00533, L718V)
T17 construct: expressed in transfected cells; host or cells: Ba/F3
Method: (§10) Data represent the ratio of the IC50 value for a given TKI for cells with a PACC EGFR mutation to the IC50 value for cells with wildtype EGFR.
as §2, §7

[18] = biological target: T18, EGFR G719A/R776C (Homo sapiens, UniProt P00533, G719A/R776C)
T18 construct: expressed in transfected cells; host or cells: Ba/F3
Method: as §10, §2, §7

[19] = biological target: T19, EGFR G724S (Homo sapiens, UniProt P00533, G724S)
T19 construct: expressed in transfected cells; host or cells: Ba/F3
Method: as §10, §2, §7

[20] = biological target: T20, EGFR S768I (Homo sapiens, UniProt P00533, S768I)
T20 construct: expressed in transfected cells; host or cells: Ba/F3

[21] = biological target: T21, EGFR S768I/V769L (Homo sapiens, UniProt P00533, S768I/V769L)
T21 construct: host or cells: Ba/F3
Method: as §10, §2, §7

[22] = biological target: T22, EGFR S768I V774M (Homo sapiens, UniProt P00533, S768I/V774M)
T22 construct: host or cells: Ba/F3

[23] = biological target: T23, EGFR R776H (Homo sapiens, UniProt P00533, R776H)
T23 construct: host or cells: Ba/F3

[24] = biological target: T24, EGFR L858R/L718V (Homo sapiens, UniProt P00533, L718V/L858R)
T24 construct: host or cells: Ba/F3

[25] = biological target: T25, EGFR L858R L718Q (Homo sapiens, UniProt P00533, L718Q/L858R)
T25 construct: host or cells: Ba/F3

[26] = biological target: T26, EGFR L858R/C797S (Homo sapiens, UniProt P00533, C797S/L858R)
T26 construct: expressed in transfected cells; host or cells: Ba/F3
Method: as §10, §2, §7

[27] = biological target: T27, EGFR Ex19del/C797S (Homo sapiens, UniProt P00533, C797S/DEL746-750)
T27 construct: expressed in transfected cells; host or cells: Ba/F3

Row | SMILES | ratio of IC50 for cells with mutant EGFR to IC50 for cells with wildtype EGFR (Mut/WT) [1] | ratio of IC50 for cells with mutant EGFR to IC50 for cells with wildtype EGFR (Mut/WT) [2] | ratio of IC50 for cells with mutant EGFR to IC50 for cells with wildtype EGFR (Mut/WT) [3] | ratio of IC50 for cells with mutant EGFR to IC50 for cells with wildtype EGFR (Mut/WT) [4] | ratio of IC50 for cells with mutant EGFR to IC50 for cells with wildtype EGFR (Mut/WT) [5] | ratio of IC50 for cells with mutant EGFR to IC50 for cells with wildtype EGFR (Mut/WT) [6] | ratio of IC50 for cells with mutant EGFR to IC50 for cells with wildtype EGFR (Mut/WT) [7] | ratio of IC50 for cells with mutant EGFR to IC50 for cells with wildtype EGFR (Mut/WT) [8] | ratio of IC50 for cells with mutant EGFR to IC50 for cells with wildtype EGFR (Mut/WT) [9] | ratio of IC50 for cells with mutant EGFR to IC50 for cells with wildtype EGFR (Mut/WT) [10] | ratio of IC50 for cells with mutant EGFR to IC50 for cells with wildtype EGFR (Mut/WT) [11] | ratio of IC50 for cells with mutant EGFR to IC50 for cells with wildtype EGFR (Mut/WT) [12] | ratio of IC50 for cells with mutant EGFR to IC50 for cells with wildtype EGFR (Mut/WT) [13] | ratio of IC50 for cells with mutant EGFR to IC50 for cells with wildtype EGFR (Mut/WT) [14] | also measured
1 | C=CC(=O)Nc1cccc(Oc2nc(Nc3ccc(N4CCN(C)CC4)cc3)nc3ccsc23)c1 [Olmutinib] | 0.006716 | 0.01716 | 0.008838 | 0.0307 | 0.31 | 0.4208 | 0.0001357 | 0.0007936 | 0.0215 | 0.005075 | 0.004757 | 0.02165 | 0.01985 | 2.218 | ratio of the IC50 value for cells with a PACC EGFR mutation to the IC50 value for cells with wildtype EGFR ([15]; Ba/F3 cells, EGFR E709K G719S (PACC), Mut/WT): 0.3569; ratio of the IC50 value for cells with a PACC EGFR mutation to the IC50 value for cells with wildtype EGFR ([16]; Ba/F3 cells, EGFR L718Q (PACC), Mut/WT): 3.977; ratio of the IC50 value for cells with a PACC EGFR mutation to the IC50 value for cells with wildtype EGFR ([17]; Ba/F3 cells, EGFR L718V (PACC), Mut/WT): 0.139; ratio of the IC50 value for cells with a PACC EGFR mutation to the IC50 value for cells with wildtype EGFR ([18]; Ba/F3 cells, EGFR G719A/R776C (PACC), Mut/WT): 0.1805; ratio of the IC50 value for cells with a PACC EGFR mutation to the IC50 value for cells with wildtype EGFR ([19]; Ba/F3 cells, EGFR G724S (PACC), Mut/WT): 0.1827; ratio of the IC50 value for cells with a PACC EGFR mutation to the IC50 value for cells with wildtype EGFR ([20]; Ba/F3 cells, EGFR S768I (PACC), Mut/WT): 0.007216; ratio of the IC50 value for cells with a PACC EGFR mutation to the IC50 value for cells with wildtype EGFR ([21]; Ba/F3 cells, EGFR S768I/V769L (PACC), Mut/WT): 0.3582; ratio of the IC50 value for cells with a PACC EGFR mutation to the IC50 value for cells with wildtype EGFR ([22]; Ba/F3 cells, EGFR S768I V774M (PACC), Mut/WT): 0.1109; ratio of the IC50 value for cells with a PACC EGFR mutation to the IC50 value for cells with wildtype EGFR ([23]; Ba/F3 cells, EGFR R776H (PACC), Mut/WT): 0.1146; ratio of the IC50 value for cells with a PACC EGFR mutation to the IC50 value for cells with wildtype EGFR ([24]; Ba/F3 cells, EGFR L858R/L718V (PACC), Mut/WT): 0.8629; ratio of the IC50 value for cells with a PACC EGFR mutation to the IC50 value for cells with wildtype EGFR ([25]; Ba/F3 cells, EGFR L858R L718Q (PACC), Mut/WT): 2.324; ratio of the IC50 value for cells with a PACC EGFR mutation to the IC50 value for cells with wildtype EGFR ([26]; Ba/F3 cells, EGFR L858R/C797S (PACC), Mut/WT): 2.242; ratio of the IC50 value for cells with a PACC EGFR mutation to the IC50 value for cells with wildtype EGFR ([27]; Ba/F3 cells, EGFR Ex19del/C797S (PACC), Mut/WT): 2.14
2 | COc1cc2ncnc(Nc3cccc(Cl)c3F)c2cc1OC(=O)N1CCN(C)C[C@H]1C [AZD3759] | 0.002241 | 0.00585 | 0.04651 | 0.006423 | 3.835 | 1.567 | 4.604 | 6.744 | 7.218 | 4.645 | 9.625 | 4.812 | 7.7 | 9.625 | ratio of IC50 for cells with mutant EGFR to IC50 for cells with wildtype EGFR (Mut/WT) ([15]; PACC, E709K G719S, Ba/F3, 72 hours): 0.3636; ratio of IC50 for cells with mutant EGFR to IC50 for cells with wildtype EGFR (Mut/WT) ([16]; PACC, L718Q, Ba/F3, 72 hours): 1.696; ratio of IC50 for cells with mutant EGFR to IC50 for cells with wildtype EGFR (Mut/WT) ([17]; PACC, L718V, Ba/F3, 72 hours): 0.6898; ratio of IC50 for cells with mutant EGFR to IC50 for cells with wildtype EGFR (Mut/WT) ([18]; PACC, G719A/R776C, Ba/F3, 72 hours): 0.2006; ratio of IC50 for cells with mutant EGFR to IC50 for cells with wildtype EGFR (Mut/WT) ([19]; PACC, G724S, Ba/F3, 72 hours): 0.01105; ratio of IC50 for cells with mutant EGFR to IC50 for cells with wildtype EGFR (Mut/WT) ([20]; PACC, S768I, Ba/F3, 72 hours): 0.145; ratio of IC50 for cells with mutant EGFR to IC50 for cells with wildtype EGFR (Mut/WT) ([21]; PACC, S768I/V769L, Ba/F3, 72 hours): 0.7072; ratio of IC50 for cells with mutant EGFR to IC50 for cells with wildtype EGFR (Mut/WT) ([22]; PACC, S768I V774M, Ba/F3, 72 hours): 0.2555; ratio of IC50 for cells with mutant EGFR to IC50 for cells with wildtype EGFR (Mut/WT) ([23]; PACC, R776H, Ba/F3, 72 hours): 0.02185; ratio of IC50 for cells with mutant EGFR to IC50 for cells with wildtype EGFR (Mut/WT) ([24]; PACC, L858R/L718V, Ba/F3, 72 hours): 0.2408; ratio of IC50 for cells with mutant EGFR to IC50 for cells with wildtype EGFR (Mut/WT) ([25]; PACC, L858R L718Q, Ba/F3, 72 hours): 0.3765; ratio of IC50 for cells with mutant EGFR to IC50 for cells with wildtype EGFR (Mut/WT) ([26]; PACC, L858R/C797S, Ba/F3, 72 hours): 0.001895; ratio of IC50 for cells with mutant EGFR to IC50 for cells with wildtype EGFR (Mut/WT) ([27]; PACC, Ex19del/C797S, Ba/F3, 72 hours): 0.0001375
